Results taken from the supplement of paper PMC10307832.

Legend:
Experiment in all cases: relative viability (nuclei count vs DMSO), 5 days (fraction); higher = more cells survive
Veliparib + OSI-027 = compound: C[C@]1(c2nc3c(C(N)=O)cccc3[nH]2)CCCN1 [Veliparib] + COc1cccc2cc(-c3nc([C@H]4CC[C@H](C(=O)O)CC4)n4ncnc(N)c34)[nH]c12 [OSI-027] (partner 0.5 µM)
Method in brief: (§1)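 The day after seeding in 1536-well plates, lung cancer cell lines were treated by pin tool with a single drug, or with a fixed anchor-drug dose together with five library-drug doses (not always all listed) in √10 steps. After 5 days, a combined fix-and-stain solution (final 0.05% Triton X-100, 1% formaldehyde, 1 ug/ml Hoechst) was added. Nuclei counted on 4× images gave relative viability as treated counts over vehicle counts, reported as the median of duplicate plates.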

[1] = compound: COC1=CC=C(C=C1)CN2C=CC3=C2C=C(C=C3)C(=O)NO + COc1cc2c(Oc3ccc(NC(=O)C4(C(=O)Nc5ccc(F)cc5)CC4)cc3F)ccnc2cc1OCCCN1CCOCC1 [Foretinib] (partner 0.25 µM)
Method in brief: as §1

Veliparib + Lapatinib = compound: C[C@]1(c2nc3c(C(N)=O)cccc3[nH]2)CCCN1 [Veliparib] + CS(=O)(=O)CCNCc1ccc(-c2ccc3ncnc(Nc4ccc(OCc5cccc(F)c5)c(Cl)c4)c3c2)o1 [Lapatinib] (partner 2 µM)
Method in brief: as §1

Veliparib + Pemetrexed = compound: C[C@]1(c2nc3c(C(N)=O)cccc3[nH]2)CCCN1 [Veliparib] + Nc1nc2[nH]cc(CCc3ccc(C(=O)N[C@@H](CCC(=O)O)C(=O)O)cc3)c2c(=O)[nH]1 [Pemetrexed] (partner 0.2 µM)
Method in brief: as §1

Row | Cell Line | relative viability (Veliparib + OSI-027; first compound 0.02 µM) | relative viability (Veliparib + OSI-027; first compound 0.06325 µM) | relative viability (Veliparib + OSI-027; first compound 0.2 µM) | relative viability (Veliparib + OSI-027; first compound 0.6325 µM) | relative viability (Veliparib + OSI-027; first compound 2 µM) | relative viability ([1]; first compound 0.08 µM) | relative viability ([1]; first compound 0.253 µM) | relative viability ([1]; first compound 0.8 µM) | relative viability ([1]; first compound 2.53 µM) | relative viability ([1]; first compound 8 µM) | relative viability (Veliparib + Lapatinib; first compound 0.02 µM) | relative viability (Veliparib + Lapatinib; first compound 0.06325 µM) | relative viability (Veliparib + Lapatinib; first compound 0.2 µM) | relative viability (Veliparib + Lapatinib; first compound 0.6325 µM) | relative viability (Veliparib + Lapatinib; first compound 2 µM) | relative viability (Veliparib + Pemetrexed; first compound 0.02 µM) | relative viability (Veliparib + Pemetrexed; first compound 0.06325 µM) | relative viability (Veliparib + Pemetrexed; first compound 0.2 µM) | relative viability (Veliparib + Pemetrexed; first compound 0.6325 µM) | relative viability (Veliparib + Pemetrexed; first compound 2 µM)
1 | HCC-366 | 0.961 | 0.752 | 0.89 | 0.838 | 0.915 | 0.433 | 0.994 | 0.89 | 0.992 | 0.923 | 1.06 | 0.897 | 0.929 | 0.974 | 1.09 | 0.178 | 0.204 | 0.227 | 0.185 | 0.207
2 | HCC-827 | 0.763 | 0.843 | 0.722 | 0.552 | 0.786 | 0.834 | 1.13 | 1.09 | 1.05 | 0.996 | 0.199 | 0.191 | 0.182 | 0.177 | 0.191 | 0.25 | 0.282 | 0.256 | 0.215 | 0.273
3 | HOP-62 | 0.756 | 0.734 | 0.798 | 0.792 | 0.761 | 0.74 | 1.14 | 1.08 | 1.01 | 1.1 | 1.14 | 0.878 | 0.951 | 0.99 | 1.12 | 0.311 | 0.376 | 0.365 | 0.329 | 0.373
4 | IA-LM | – | – | – | – | – | 0.997 | 1.33 | 1.08 | 1.2 | 1.06 | 0.85 | 0.561 | 0.771 | 0.846 | 1.04 | – | – | – | – | –
5 | LC-2-ad | – | 0.758 | 0.781 | 0.792 | 0.87 | 0.904 | 0.918 | 0.899 | 0.906 | 0.816 | – | 0.813 | 0.967 | 0.94 | 0.951 | 0.277 | 0.277 | 0.273 | 0.263 | 0.287
6 | LCLC-97TM1 | 0.51 | 0.5 | 0.505 | 0.433 | 0.587 | 0.444 | 0.992 | 0.96 | 0.942 | 0.923 | 0.734 | 0.828 | 1.45 | – | 1.22 | 0.19 | 0.173 | 0.177 | 0.141 | 0.189
7 | LCLC-103H | 0.464 | 0.434 | 0.462 | 0.466 | 0.5 | 0.68 | 0.846 | 0.832 | 0.789 | 0.761 | – | – | – | – | – | 0.447 | 0.49 | 0.454 | 0.422 | 0.478
8 | LK-2 | 0.164 | 0.204 | 0.229 | 0.263 | 0.206 | – | 1.66 | 1.4 | 0.949 | 1.03 | 0.637 | 0.814 | 1.11 | 0.877 | 0.643 | 0.324 | 0.307 | 0.311 | 0.203 | 0.299
9 | LOU-NH91 | 0.716 | 0.669 | 0.688 | 0.726 | 0.74 | 0.899 | 0.941 | 0.915 | 0.908 | 0.861 | 0.708 | 0.656 | 0.82 | 0.735 | 0.781 | 0.394 | 0.374 | 0.39 | 0.374 | 0.374
10 | LU99A | 0.297 | 0.303 | 0.27 | 0.266 | 0.323 | – | 0.904 | 0.841 | 0.865 | 0.836 | 1.03 | 0.926 | 0.585 | 0.859 | 0.87 | 0.207 | 0.184 | 0.205 | 0.196 | 0.181
11 | LXF-289 | 0.836 | 0.781 | 0.799 | 0.711 | 0.759 | – | 0.994 | 1.01 | 1.02 | 1.03 | 0.903 | 0.878 | 0.897 | 0.904 | 0.928 | 0.897 | 1.02 | 0.913 | 0.856 | 0.997
12 | NCI-H441 | 0.622 | 0.539 | 0.553 | 0.585 | 0.617 | 0.933 | 1.26 | 0.943 | 1.03 | 0.844 | – | – | – | – | – | 0.292 | 0.265 | 0.3 | 0.254 | 0.289
13 | NCI-H522 | 0.679 | 0.731 | 0.888 | 0.689 | 0.732 | – | – | – | – | – | – | – | – | – | – | 0.981 | 0.814 | 0.761 | 1.16 | 0.785
14 | NCI-H727 | 0.527 | 0.439 | 0.648 | 0.494 | 0.537 | 0.792 | 0.951 | 1.31 | 0.819 | 0.836 | 0.388 | 0.759 | 0.9 | 0.876 | 0.734 | – | – | – | – | –
15 | NCI-H1299 | – | – | – | – | – | 1.09 | 1.1 | 1.15 | 1.09 | 1.05 | 0.972 | 0.944 | 0.951 | 0.956 | 0.978 | – | – | – | – | –
16 | NCI-H1623 | 0.384 | 0.362 | 0.425 | 0.42 | 0.431 | 0.649 | 0.82 | 0.866 | 0.859 | 0.766 | – | – | – | – | – | – | – | – | – | –
17 | NCI-H1648 | 0.255 | 0.262 | 0.249 | 0.278 | 0.251 | – | – | – | – | – | – | – | – | – | – | 1 | – | – | 1.02 | 0.709
18 | NCI-H1703 | – | – | – | – | – | – | 0.374 | 0.385 | 0.368 | 0.307 | 1.11 | 0.922 | 1.35 | 0.982 | 1.2 | – | – | – | – | –
19 | NCI-H1792 | 0.738 | 0.708 | 0.73 | 0.707 | 0.664 | – | – | – | – | – | 0.922 | 0.719 | 0.962 | 0.983 | 0.832 | 0.724 | 0.503 | 0.653 | 0.786 | 0.66
20 | NCI-H2342 | 0.586 | 0.558 | 0.649 | 0.687 | 0.572 | 0.997 | 0.986 | 0.978 | 0.956 | 1.02 | – | – | – | – | – | 0.675 | 0.721 | 0.744 | 0.784 | 0.771
21 | SW 900 | – | – | 0.675 | 0.582 | 0.413 | 0.746 | 0.822 | 0.908 | 0.828 | 0.719 | – | – | – | – | – | – | 0.492 | 0.493 | 0.467 | 0.511
